Experimental data from patent US9399626B2, “2-thiopyrimidinones” (Pfizer Inc., priority 2011, dated 2016).

Molecular target: T1, MPO (purified from human polynuclear leukocytes) (Homo sapiens, UniProt P05164)
T1 construct: purified from human polynuclear leukocytes; purchased Calbiochem/EMD Biosciences; host or cells: human polynuclear leukocytes (natural source)
Assay: MPO Amplex Red Activity Assay
Type: biochemical
Conditions: Table 1, 2 μM H2O2, pH 7.4
Summary of the method: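 Potency is given as kinact/KI: kobs values from 600 s progress curves, minus the uninhibited rate, are fit against inhibitor concentration. Reactions use 2 μM H2O2, 30 μM Amplex Red, pH 7.4 phosphate buffer with NaCl, DTPA and 2% DMSO, started with […] human MPO. Readout is resorufin fluorescence, catalase background subtracted.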

T1 sequence (P05164 279-745 limits assumed): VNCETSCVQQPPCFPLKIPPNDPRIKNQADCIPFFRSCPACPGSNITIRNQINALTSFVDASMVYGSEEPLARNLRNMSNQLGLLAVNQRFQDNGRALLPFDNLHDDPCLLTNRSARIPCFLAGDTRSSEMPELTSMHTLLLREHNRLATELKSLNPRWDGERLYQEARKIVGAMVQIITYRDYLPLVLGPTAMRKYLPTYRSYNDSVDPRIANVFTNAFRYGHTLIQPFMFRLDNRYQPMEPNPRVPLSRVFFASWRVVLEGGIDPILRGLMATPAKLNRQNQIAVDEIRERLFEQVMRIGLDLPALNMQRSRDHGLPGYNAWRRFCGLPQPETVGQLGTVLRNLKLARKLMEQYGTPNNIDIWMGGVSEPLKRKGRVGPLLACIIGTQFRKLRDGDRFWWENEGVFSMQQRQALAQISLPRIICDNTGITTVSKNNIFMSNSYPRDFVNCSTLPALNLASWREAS
T1 sequence (P05164 165-273 limits assumed): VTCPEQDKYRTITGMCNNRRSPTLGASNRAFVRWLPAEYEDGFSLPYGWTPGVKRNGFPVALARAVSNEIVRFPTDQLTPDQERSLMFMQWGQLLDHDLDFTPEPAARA

| SMILES | MPO kinact/Ki |
| --- | --- |
| COCCn1c(-c2cccc(S(=O)(=O)N(C)C)c2)cc(=O)[nH]c1=S [Example 348, 3-[3-(2-methoxyethyl)-6-oxo-2-thioxo-1,2,3,6-tetrahydropyrimidin-4-yl]-N,N-dimethylbenzenesulfonamide] | 1400 1/s per M |

Same assay, conditions: Table 1A, 2 μM H2O2, pH 7.4

| SMILES | MPO kinact/Ki |
| --- | --- |
| NC(=O)Cn1c(-c2ccccc2OCCO)cc(=O)[nH]c1=S [Example 349, 2-(6-(2-(2-Hydroxyethoxy)phenyl)-4-oxo-2-thioxo-3,4-dihydropyrimidin-1(2H)-yl)acetamide] | 3630 1/s per M |
| COC(=O)/N=C(/N)NCCCn1c(-c2cc(Cl)ccc2OC)cc(=O)[nH]c1=S [Example 350, Methyl[amino({3-[6-(5-chloro-2-methoxyphenyl)-4-oxo-2-thioxo-3,4-dihydropyrimidin-1(2H)-yl]propyl}amino)methylidene]carbamate] | 8740 1/s per M |
| COc1ccc(F)cc1-c1cc(=O)[nH]c(=S)n1CCCNC(=N)N1CC(F)(F)C1 [Example 351, 3,3-Difluoro-N-{3-[6-(5-fluoro-2-methoxyphenyl)-4-oxo-2-thioxo-3,4-dihydropyrimidin-1(2H)-yl]propyl}azetidine-1-carboximidamide] | 7870 1/s per M |
| COc1ccc(OC)c(-c2cc(=O)[nH]c(=S)n2CCNC(=O)CN)c1 [Example 352, N-{2-[6-(2,5-dimethoxyphenyl)-4-oxo-2-thioxo-3,4-dihydropyrimidin-1(2H)-yl]ethyl}glycinamide] | 6720 1/s per M |
| COc1ccc(Cl)cc1-c1cc(=O)[nH]c(=S)n1CCCNS(C)(=O)=O [Example 353, N-{3-[6-(5-chloro-2-methoxyphenyl)-4-oxo-2-thioxo-3,4-dihydropyrimidin-1(2H)-yl]propyl}methanesulfonamide] | 11000 1/s per M |
| NCCn1c(-c2cc3ccccc3s2)cc(=O)[nH]c1=S [Example 354, 1-(2-aminoethyl)-6-(1-benzothiophen-2-yl)-2-thioxo-2,3-dihydropyrimidin-4(1H)-one] | 1830 1/s per M |
| COc1ccc(-c2cc(=O)[nH]c(=S)n2CCO)cc1OC [Example 355, 6-(3,4-dimethoxyphenyl)-1-(2-hydroxyethyl)-2-thioxo-2,3-dihydropyrimidin-4(1H)-one] | 1540 1/s per M |
| O=c1cc(-c2ccc3c(c2)OCCO3)n(CCO)c(=S)[nH]1 [Example 356, 6-(2,3-dihydro-1,4-benzodioxin-6-yl)-1-(2-hydroxyethyl)-2-thioxo-2,3-dihydropyrimidin-4(1H)-one] | 2910 1/s per M |
| NCCn1c(-c2ccc3c(c2)OCCO3)cc(=O)[nH]c1=S [Example 357, 1-(2-aminoethyl)-6-(2,3-dihydro-1,4-benzodioxin-6-yl)-2-thioxo-2,3-dihydropyrimidin-4(1H)-one] | 2940 1/s per M |
| NC(=O)Cn1c(-c2ccc3c(c2)OCCO3)cc(=O)[nH]c1=S [Example 358, 2-[6-(2,3-dihydro-1,4-benzodioxin-6-yl)-4-oxo-2-thioxo-3,4-dihydropyrimidin-1(2H)-yl]acetamide] | 1710 1/s per M |
| COc1ccc(Cl)cc1-c1cc(=O)[nH]c(=S)n1C[C@H](O)CO [Example 359, 6-(5-chloro-2-methoxyphenyl)-1-[(2S)-2,3-dihydroxypropyl]-2-thioxo-2,3-dihydropyrimidin-4(1H)-one] | 2660 1/s per M |
| COc1ccc(-c2cc(=O)[nH]c(=S)n2CCN)cc1OC [Example 360, 1-(2-aminoethyl)-6-(3,4-dimethoxyphenyl)-2-thioxo-2,3-dihydropyrimidin-4(1H)-one] | 2280 1/s per M |
| COc1ccc(Cl)cc1-c1cc(=O)[nH]c(=S)n1C[C@H](C)N [Example 361, 1-[(2S)-2-aminopropyl]-6-(5-chloro-2-methoxyphenyl)-2-thioxo-2,3-dihydropyrimidin-4(1H)-one] | 2060 1/s per M |
| NCCn1c(-c2cccc3ncsc23)cc(=O)[nH]c1=S [Example 362, 1-(2-aminoethyl)-6-(1,3-benzothiazol-7-yl)-2-thioxo-2,3-dihydropyrimidin-4(1H)-one] | 2690 1/s per M |
| NC(=O)Cn1c(-c2cccc3c2OCCO3)cc(=O)[nH]c1=S [Example 363, 2-[6-(2,3-dihydro-1,4-benzodioxin-5-yl)-4-oxo-2-thioxo-3,4-dihydropyrimidin-1(2H)-yl]acetamide] | 9680 1/s per M |
| NC(=O)Cn1c(-c2cccc3c2OCC3)cc(=O)[nH]c1=S [Example 364, 2-[6-(2,3-dihydro-1-benzofuran-7-yl)-4-oxo-2-thioxo-3,4-dihydropyrimidin-1(2H)-yl]acetamide] | 6580 1/s per M |
| CSc1ccccc1-c1cc(=O)[nH]c(=S)n1CC(N)=O [Example 365, 2-{6-[2-(methylsulfanyl)phenyl]-4-oxo-2-thioxo-3,4-dihydropyrimidin-1(2H)yl}acetamide] | 9290 1/s per M |
| O=c1cc(-c2ccccc2O)n(CCO)c(=S)[nH]1 [Example 366, 1-(2-hydroxyethyl)-6-(2-hydroxyphenyl)-2-thioxo-2,3-dihydropyrimidin-4(1H)-one] | 13600 1/s per M |
| NC(=O)Cn1c(-c2cccc3ncccc23)cc(=O)[nH]c1=S [Example 367, 2-[4-oxo-6-(quinolin-5-yl)-2-thioxo-3,4-dihydropyrimidin-1(2H)-yl]acetamide] | 1340 1/s per M |

Results, then the compound that gave them:

| MPO kinact/Ki | SMILES |
| --- | --- |
| 3270 1/s per M | NC(=O)Cn1c(-c2ccccc2O)cc(=O)[nH]c1=S [Example 368, 2-[6-(2-hydroxyphenyl)-4-oxo-2-thioxo-3,4-dihydropyrimidin-1(2H)-yl]acetamide] |
| 8040 1/s per M | COc1ccc(Cl)cc1-c1cc(=O)[nH]c(=S)n1CC(=O)NCCN [Example 369, N-(2-aminoethyl)-2-[6-(5-chloro-2-methoxyphenyl)-4-oxo-2-thioxo-3,4-dihydropyrimidin-1(2H)-yl]acetamide] |
| 9060 1/s per M | COc1ccc(OC)c(-c2cc(=O)[nH]c(=S)n2CC(=O)NCCN)c1 [Example 370, N-(2-aminoethyl)-2-[6-(2,5-dimethoxyphenyl)-4-oxo-2-thioxo-3,4-dihydropyrimidin-1(2H)-yl]acetamide] |
| 4570 1/s per M | COc1ccc(F)cc1-c1cc(=O)[nH]c(=S)n1CC(=O)NCCN [Example 371, N-(2-aminoethyl)-2-[6-(5-fluoro-2-methoxyphenyl)-4-oxo-2-thioxo-3,4-dihydropyrimidin-1(2H)-yl]acetamide] |
| 6250 1/s per M | COc1ccccc1-c1cc(=O)[nH]c(=S)n1CC(=O)NCCN [Example 372, N-(2-aminoethyl)-2-[6-(2-methoxyphenyl)-4-oxo-2-thioxo-3,4-dihydropyrimidin-1(2H)-yl]acetamide] |
| 12800 1/s per M | COc1ccc(C)cc1-c1cc(=O)[nH]c(=S)n1CC(=O)NCCN [Example 373, N-(2-aminoethyl)-2-[6-(2-methoxy-5-methylphenyl)-4-oxo-2-thioxo-3,4-dihydropyrimidin-1(2H)-yl]acetamide] |
| 4600 1/s per M | CNCCCn1c(-c2cc(F)ccc2OC)cc(=O)[nH]c1=S [Example 374, 6-(5-fluoro-2-methoxyphenyl)-1-[3-(methylamino)propyl]-2-thioxo-2,3-dihydropyrimidin-4(1H)-one] |
| 11300 1/s per M | COc1ccc(F)cc1-c1cc(=O)[nH]c(=S)n1CCCN(C)C(=N)N [Example 375, 1-{3-[6-(5-fluoro-2-methoxyphenyl)-4-oxo-2-thioxo-3,4-dihydropyrimidin-1(2H)yl]propyl}-1-methylguanidine] |
| 7870 1/s per M | COc1ccc(Cl)cc1-c1cc(=O)[nH]c(=S)n1CC(=O)NC(=N)N [Example 376, N-carbamidoyl-2-[6-(5-chloro-2-methoxyphenyl)-4-oxo-2-thioxo-3,4-dihydropyrimidin-1(2H)-yl]acetamide] |
| 8770 1/s per M | NC(=O)Cn1c(-c2cc(Cl)ccc2O)cc(=O)[nH]c1=S [Example 377, 2-[6-(5-chloro-2-hydroxyphenyl)-4-oxo-2-thioxo-3,4-dihydropyrimidin-1(2H)-yl]acetamide] |
| 5040 1/s per M | COc1ccc(OCCO)c(-c2cc(=O)[nH]c(=S)n2CC(=O)NCCN)c1 [Example 378, N-(2-aminoethyl)-2-{6-[2-(2-hydroxyethoxy)-5-methoxyphenyl]-4-oxo-2-thioxo-3,4-dihydropyrimidin-1(2H)-yl}acetamide] |
| 7370 1/s per M | COc1ccc(OCCO)c(-c2cc(=O)[nH]c(=S)n2CCO)c1 [Example 379, 6-[2-(2-hydroxyethoxy)-5-methoxyphenyl]-1-(2-hydroxyethyl)-2-thioxo-2,3-dihydropyrimidin-4(1H)-one] |
| 4470 1/s per M | COc1ccc(OCCO)c(-c2cc(=O)[nH]c(=S)n2CC(N)=O)c1 [Example 380, 2-{6-[2-(2-hydroxyethoxy)-5-methoxyphenyl]-4-oxo-2-thioxo-3,4-dihydropyrimidin-1(2H)-yl}acetamide] |
| 1970 1/s per M | COc1ccc(-c2cc(=O)[nH]c(=S)n2CCNCCN)c(OC)c1 [Example 381, 1-{2-[(2-aminoethyl)amino]ethyl}-6-(2,4-dimethoxyphenyl)-2-thioxo-2,3-dihydropyrimidin-4(1H)-one] |
| 2310 1/s per M | NCCn1c(-c2ccccc2OC(F)(F)F)cc(=O)[nH]c1=S [Example 382, 1-(2-aminoethyl)-2-thioxo-6-[2-(trifluoromethoxy)phenyl]-2,3-dihydropyrimidin-4(1H)-one] |
| 5230 1/s per M | COc1ccc(-c2cc(=O)[nH]c(=S)n2CCNCCO)c(OC)c1 [Example 383, 6-(2,4-dimethoxyphenyl)-1-{2-[(2-hydroxyethyl)amino]ethyl}-2-thioxo-2,3-dihydropyrimidin-4(1H)-one] |
